From ChEMBL document CHEMBL1909046, “DrugMatrix in vitro pharmacology data”

Tests used:
[1] = biological target: C-C chemokine receptor type 2 (Homo sapiens, UniProt P41597); format: cell membranes, CHO-K1, Membrane; settings: cho-k1; also: in other assays of this panel Not Active means under 50% inhibition at 10 µM
[2] = biological target: Epidermal growth factor receptor (Homo sapiens, UniProt P00533); experiment: DRUGMATRIX: Protein Tyrosine Kinase, EGF Receptor enzyme inhibition (substrate: Poly(Glu:Tyr)); format: cell-based, Insect cells; settings: insect cells; Not Active = under 50% inhibition at 10 µM
[3] = biological target: Tyrosine-protein kinase Fyn (Homo sapiens, UniProt P06241); experiment: biochemical; format: cell-based, Insect cells; settings: insect cells;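 also: enzymatic inhibition of Fyn kinase activity measured with Poly(Glu:Tyr) as the phosphorylation substrate; in other assays of this panel Not Active means under 50% inhibition at 10 µM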
B2 bradykinin receptor = biological target: T1, B2 bradykinin receptor (Homo sapiens, UniProt P30411); format: cell membranes, Membrane; settings: chem-1; also: in other assays of this panel Not Active means under 50% inhibition at 10 µM
T1 sequence (P30411 whole entry): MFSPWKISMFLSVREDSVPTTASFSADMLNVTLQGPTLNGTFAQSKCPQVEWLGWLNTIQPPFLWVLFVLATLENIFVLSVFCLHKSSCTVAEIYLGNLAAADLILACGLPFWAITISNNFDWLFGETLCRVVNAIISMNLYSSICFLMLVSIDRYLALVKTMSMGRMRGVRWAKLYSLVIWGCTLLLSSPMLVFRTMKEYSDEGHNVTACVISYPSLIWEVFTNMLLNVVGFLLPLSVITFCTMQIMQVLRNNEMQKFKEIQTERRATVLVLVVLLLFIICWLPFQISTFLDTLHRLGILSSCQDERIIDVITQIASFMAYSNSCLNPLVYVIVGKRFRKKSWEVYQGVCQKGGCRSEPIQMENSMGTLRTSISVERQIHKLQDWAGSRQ

[4] = biological target: T2, C-X-C chemokine receptor type 2 (Homo sapiens, UniProt P25025); format: cell membranes, CHO-K1, Membrane; settings: cho-k1; also: in other assays of this panel Not Active means under 50% inhibition at 10 µM
T2 sequence (P25025 whole entry): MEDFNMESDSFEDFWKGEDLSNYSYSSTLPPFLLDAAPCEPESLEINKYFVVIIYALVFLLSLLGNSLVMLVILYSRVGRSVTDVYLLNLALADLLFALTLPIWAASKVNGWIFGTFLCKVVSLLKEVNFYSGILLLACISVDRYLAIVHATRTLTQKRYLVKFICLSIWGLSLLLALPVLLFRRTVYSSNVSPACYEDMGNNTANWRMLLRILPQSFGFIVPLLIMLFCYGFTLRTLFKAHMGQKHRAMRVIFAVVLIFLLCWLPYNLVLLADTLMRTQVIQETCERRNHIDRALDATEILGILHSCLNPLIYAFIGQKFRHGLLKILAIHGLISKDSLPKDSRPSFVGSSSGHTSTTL

Cytochrome P450 2C9 = Cytochrome P450 2C9 (Homo sapiens, UniProt P11712); settings: bti-tn-5b1-4; also: in other assays of this panel Not Active means under 50% inhibition at 10 µM
[5] = biological target: Beta-2 adrenergic receptor (Homo sapiens, UniProt P07550); experiment: DRUGMATRIX: Adrenergic beta2 radioligand binding (ligand: [3H] CGP-12177); format: cell membranes, CHO, Membrane; settings: cho; Not Active = under 50% inhibition at 10 µM
[6] = DRUGMATRIX: Purinergic P2X radioligand binding (ligand: [3H] alpha, beta-Methylene-ATP); format: cell membranes, Oryctolagus cuniculus, New Zealand albino, Urinary bladder, Membrane; settings: Not Active = under 50% inhibition at 10 µM

Tyrosine-protein kinase Fyn, sequence (P06241 whole entry): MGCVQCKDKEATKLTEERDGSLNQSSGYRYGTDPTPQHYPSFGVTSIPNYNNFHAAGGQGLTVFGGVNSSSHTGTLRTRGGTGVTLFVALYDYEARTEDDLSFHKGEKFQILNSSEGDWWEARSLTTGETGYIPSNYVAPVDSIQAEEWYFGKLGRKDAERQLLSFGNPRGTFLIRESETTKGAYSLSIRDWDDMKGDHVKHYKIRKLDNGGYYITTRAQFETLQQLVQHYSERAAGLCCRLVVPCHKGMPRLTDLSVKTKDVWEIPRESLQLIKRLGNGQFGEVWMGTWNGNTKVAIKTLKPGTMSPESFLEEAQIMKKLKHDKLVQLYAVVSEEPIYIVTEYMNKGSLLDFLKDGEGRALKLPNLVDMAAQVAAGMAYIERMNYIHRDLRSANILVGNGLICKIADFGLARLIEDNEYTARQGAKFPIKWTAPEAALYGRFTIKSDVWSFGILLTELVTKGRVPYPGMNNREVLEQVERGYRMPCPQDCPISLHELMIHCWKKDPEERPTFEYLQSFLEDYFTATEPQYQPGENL
C-C chemokine receptor type 2, sequence (P41597 whole entry): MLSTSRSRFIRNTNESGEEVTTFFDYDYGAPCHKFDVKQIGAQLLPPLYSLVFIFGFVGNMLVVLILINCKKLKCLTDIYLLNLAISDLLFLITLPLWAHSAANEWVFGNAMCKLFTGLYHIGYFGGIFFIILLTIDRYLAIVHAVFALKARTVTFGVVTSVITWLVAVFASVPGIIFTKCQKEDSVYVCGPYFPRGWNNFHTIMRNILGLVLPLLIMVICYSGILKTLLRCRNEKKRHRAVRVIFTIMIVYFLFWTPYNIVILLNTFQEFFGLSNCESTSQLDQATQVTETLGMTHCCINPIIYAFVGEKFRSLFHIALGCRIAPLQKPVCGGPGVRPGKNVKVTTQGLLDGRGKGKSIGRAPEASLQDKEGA
Cytochrome P450 2C9, sequence (P11712 whole entry): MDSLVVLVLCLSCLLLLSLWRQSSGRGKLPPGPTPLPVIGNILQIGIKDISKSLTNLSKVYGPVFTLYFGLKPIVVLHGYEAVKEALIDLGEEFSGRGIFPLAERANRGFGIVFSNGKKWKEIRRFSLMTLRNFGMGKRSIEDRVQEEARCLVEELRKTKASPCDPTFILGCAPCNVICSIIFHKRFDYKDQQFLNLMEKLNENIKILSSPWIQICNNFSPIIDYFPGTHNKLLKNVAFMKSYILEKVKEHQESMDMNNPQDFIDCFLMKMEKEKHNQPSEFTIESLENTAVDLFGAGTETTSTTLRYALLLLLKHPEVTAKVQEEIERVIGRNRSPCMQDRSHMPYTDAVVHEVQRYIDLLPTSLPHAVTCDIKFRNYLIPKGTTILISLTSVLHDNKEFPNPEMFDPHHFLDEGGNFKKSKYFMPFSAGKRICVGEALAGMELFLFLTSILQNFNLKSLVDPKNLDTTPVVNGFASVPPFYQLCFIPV

C[N+](C)(C)CCOP(=O)([O-])OC[C@H](O)CO
Not Active: IC50 [1] | IC50 [2] | IC50 [3] | IC50 (B2 bradykinin receptor) | IC50 [4] | IC50 (Cytochrome P450 2C9) | Ki (Cytochrome P450 2C9) | IC50 [5] | IC50 [6] | Ki [6]

COc1ccc(C[C@H](N)C(=O)N[C@H]2[C@@H](O)[C@H](n3cnc4c(N(C)C)ncnc43)O[C@@H]2CO)cc1 [PUROMYCIN]
Not Active: IC50 [1] | IC50 [2] | IC50 [3] | IC50 (B2 bradykinin receptor) | IC50 [4] | IC50 (Cytochrome P450 2C9) | Ki (Cytochrome P450 2C9) | IC50 [5] | IC50 [6] | Ki [6]

ClC1=C(Cl)[C@]2(Cl)[C@@H]3[C@@H]4C[C@@H]([C@H]5O[C@@H]45)[C@@H]3[C@@]1(Cl)C2(Cl)Cl [DIELDRIN]
Not Active: IC50 [1] | IC50 [2] | IC50 [3] | IC50 (B2 bradykinin receptor) | IC50 [4] | IC50 (Cytochrome P450 2C9) | Ki (Cytochrome P450 2C9) | IC50 [5] | IC50 [6] | Ki [6]

CARBOXYMETHYLCELLULOSE
Not Active: IC50 [1] | Ki [1] | IC50 [2] | Ki [2] | IC50 [3] | Ki [3] | IC50 (B2 bradykinin receptor) | Ki (B2 bradykinin receptor) | IC50 [4] | Ki [4] | IC50 (Cytochrome P450 2C9) | Ki (Cytochrome P450 2C9) | IC50 [5] | Ki [5] | IC50 [6] | Ki [6]

CC(CN1c2ccccc2Sc2ccccc21)N(C)C (configuration not stated) [PROMETHAZINE]
Not Active: IC50 [1] | IC50 [2] | IC50 [3] | IC50 (B2 bradykinin receptor) | IC50 [4] | IC50 (Cytochrome P450 2C9) | Ki (Cytochrome P450 2C9) | IC50 [5] | IC50 [6] | Ki [6]

NCC(CC(=O)O)c1ccc(Cl)cc1 (configuration not stated) [BACLOFEN]
Not Active: IC50 [1] | IC50 [2] | IC50 [3] | IC50 (B2 bradykinin receptor) | IC50 [4] | IC50 (Cytochrome P450 2C9) | Ki (Cytochrome P450 2C9) | IC50 [5] | IC50 [6] | Ki [6]

COPPER(II) OXIDE
Not Active: IC50 [1] | Ki [1] | IC50 [2] | Ki [2] | IC50 [3] | Ki [3] | IC50 (B2 bradykinin receptor) | Ki (B2 bradykinin receptor) | IC50 [4] | Ki [4] | IC50 (Cytochrome P450 2C9) | Ki (Cytochrome P450 2C9) | IC50 [5] | Ki [5] | IC50 [6] | Ki [6]

Cl.NC[C@H]1CC[C@H](C(=O)Oc2ccc(CCC(=O)O)cc2)CC1 [CETRAXATE HYDROCHLORIDE]
Not Active: IC50 [1] | IC50 [2] | IC50 [3] | IC50 (B2 bradykinin receptor) | IC50 [4] | IC50 (Cytochrome P450 2C9) | Ki (Cytochrome P450 2C9) | IC50 [5] | IC50 [6] | Ki [6]

C[C@H](C(=O)O)c1ccc2oc(-c3ccc(F)cc3)nc2c1 [FLUNOXAPROFEN]
Not Active: IC50 [1] | IC50 [2] | IC50 [3] | IC50 (B2 bradykinin receptor) | IC50 [4] | IC50 (Cytochrome P450 2C9) | Ki (Cytochrome P450 2C9) | IC50 [5] | IC50 [6] | Ki [6]

CCN1CCN(c2cc3c(cc2F)c(=O)c(C(=O)O)cn3C2CC2)CC1 [ENROFLOXACIN]
Not Active: IC50 [1] | IC50 [2] | IC50 [3] | IC50 (B2 bradykinin receptor) | IC50 [4] | IC50 (Cytochrome P450 2C9) | Ki (Cytochrome P450 2C9) | IC50 [5] | IC50 [6] | Ki [6]

C[C@]12CC[C@@H](O)C[C@@H]1CC[C@@H]1[C@@H]2CC[C@]2(C)C(=O)CC[C@@H]12 [ANDROSTERONE]
Not Active: IC50 [1] | IC50 [2] | IC50 [3] | IC50 (B2 bradykinin receptor) | IC50 [4] | IC50 (Cytochrome P450 2C9) | Ki (Cytochrome P450 2C9) | IC50 [5] | IC50 [6] | Ki [6]

O=C(NCCN1CCOCC1)c1ccc(Cl)cc1 [MOCLOBEMIDE]
Not Active: IC50 [1] | IC50 [2] | IC50 [3] | IC50 (B2 bradykinin receptor) | IC50 [4] | IC50 (Cytochrome P450 2C9) | Ki (Cytochrome P450 2C9) | IC50 [5] | IC50 [6] | Ki [6]

NC(=O)CN1CCCC1=O
Not Active: IC50 [1] | IC50 [2] | IC50 [3] | IC50 (B2 bradykinin receptor) | IC50 [4] | IC50 (Cytochrome P450 2C9) | Ki (Cytochrome P450 2C9) | IC50 [5] | IC50 [6] | Ki [6]

Oc1ccccc1 [PHENOL]
Not Active: IC50 [1] | IC50 [2] | IC50 [3] | IC50 (B2 bradykinin receptor) | IC50 [4] | IC50 (Cytochrome P450 2C9) | Ki (Cytochrome P450 2C9) | IC50 [5] | IC50 [6] | Ki [6]

CCO [ALCOHOL]
Not Active: IC50 [1] | IC50 [2] | IC50 [3] | IC50 (B2 bradykinin receptor) | IC50 [4] | IC50 (Cytochrome P450 2C9) | Ki (Cytochrome P450 2C9) | IC50 [5] | IC50 [6] | Ki [6]

OC[C@H]1O[C@@H]2O[C@H]3[C@H](O)[C@@H](O)[C@@H](O[C@H]4[C@H](O)[C@@H](O)[C@@H](O[C@H]5[C@H](O)[C@@H](O)[C@@H](O[C@H]6[C@H](O)[C@@H](O)[C@@H](O[C@H]7[C@H](O)[C@@H](O)[C@@H](O[C@H]8[C@H](O)[C@@H](O)[C@@H](O[C@H]1[C@H](O)[C@H]2O)O[C@@H]8CO)O[C@@H]7CO)O[C@@H]6CO)O[C@@H]5CO)O[C@@H]4CO)O[C@@H]3CO [BETADEX]
Not Active: IC50 [1] | IC50 [2] | IC50 [3] | IC50 (B2 bradykinin receptor) | IC50 [4] | IC50 (Cytochrome P450 2C9) | Ki (Cytochrome P450 2C9) | IC50 [5] | IC50 [6] | Ki [6]

NC(N)=Nc1nc(CSCCC(N)=NS(N)(=O)=O)cs1 [FAMOTIDINE]
Not Active: IC50 [1] | IC50 [2] | IC50 [3] | IC50 (B2 bradykinin receptor) | IC50 [4] | IC50 (Cytochrome P450 2C9) | Ki (Cytochrome P450 2C9) | IC50 [5] | IC50 [6] | Ki [6]

COc1cc(NC(C)CCCN)c2ncccc2c1 (configuration not stated) [PRIMAQUINE]
Not Active: IC50 [1] | IC50 [2] | IC50 [3] | IC50 (B2 bradykinin receptor) | IC50 [4] | IC50 (Cytochrome P450 2C9) | Ki (Cytochrome P450 2C9) | IC50 [5] | IC50 [6] | Ki [6]

Cc1c(N)nc([C@H](CC(N)=O)NC[C@H](N)C(N)=O)nc1C(=O)N[C@H](C(=O)N[C@H](C)[C@@H](O)[C@H](C)C(=O)N[C@H](C(=O)NCCc1nc(-c2nc(C(=O)NCCC[S+](C)C)cs2)cs1)[C@@H](C)O)[C@@H](O[C@@H]1O[C@@H](CO)[C@@H](O)[C@H](O)[C@@H]1O[C@H]1O[C@H](CO)[C@@H](O)[C@H](OC(N)=O)[C@@H]1O)c1c[nH]cn1.[Br-] [BLEOMYCIN A2]
Not Active: IC50 [1] | IC50 [2] | IC50 [3] | IC50 (B2 bradykinin receptor) | IC50 [4] | IC50 (Cytochrome P450 2C9) | Ki (Cytochrome P450 2C9) | IC50 [5] | IC50 [6] | Ki [6]
